Experimental data as given in patent US20100105054A1, “GENE EXPRESSION IN DUCHENNE MUSCULAR DYSTROPHY” (CINCINNATI CHILDREN'S HOSPITAL MEDICAL CENTER, priority 2008, published 2010).
Entries after “also recorded” stand apart in the source; their conditions may differ. Like-named read-outs stand apart in the source and are kept apart here.

Legend:
individuals with DMD = details: cited from earlier work; for muscle function and strength in individuals with DMD: humans with DMD
mdx mouse = details: cited from earlier work; for muscle strength: dystrophin deficient mdx mice
[1] = system: dystrophin deficient Caenorhabditis elegans; details: dystrophin deficient C. elegans; cited from earlier work
[2] = system: gene expression in peripheral blood; assay: Whole genome microarray of peripheral whole blood RNA, DMD administered prednisone or deflazacort vs DMD not administered steroid; format: in vivo, human; details: for KFL10 expression: individuals administered prednisone, deflazacort, or both vs DMD not administered any agent; for KFL10 expression / CD163 nucleic acid expression / FKBP5 expression / expression of genes in the chondroitin sulfate biosynthesis pathway / haptoglobin nucleic acid expression / lactotransferrin expression / lipocalin expression: blood; for CD163 nucleic acid expression / FKBP5 expression / expression of genes in the chondroitin sulfate biosynthesis pathway / haptoglobin nucleic acid expression / lactotransferrin expression / lipocalin expression: pooled deflazacort or prednisone group vs DMD not administered; for genes with significantly different expression: pooled group administered either prednisone or deflazacort vs DMD not administered, fold change >|1.5|, unpaired t-test, p<=0.05; for genes with down-regulated expression levels / genes with up-regulated expression levels: pooled prednisone or deflazacort group vs DMD not administered, of the 524 genes
Protocol: Individuals with DMD were evaluated and had been diagnosed by a single board-certified pediatric neurologist. The diagnosis of DMD was based in part upon clinical history, examination findings, and selected muscle biopsies and was confirmed by molecular diagnostic testing.
(§1) Of the 34 individuals with DMD, 14 were administered either prednisone (PRED, n=6) or deflazacort, an oxazoline derivative of prednisolone (DEFL, n=8) at the time blood samples for gene expression evaluation were obtained. The mean duration of administration of either prednisone or deflazacort for these 14 individuals was 43.9 months. Of the 34 individuals with DMD, 20 individuals had not been administered either prednisone or deflazacort at the time blood samples for gene expression evaluation were obtained.
(§2) Sample processing and array hybridization, probe-level data analysis, and statistical analysis were identical to Example 1.

[3] = system: gene expression in peripheral blood; assay: Whole genome microarray of peripheral whole blood RNA, DMD administered deflazacort vs DMD administered prednisone; format: in vivo, human
Protocol: as §1, §2

myasthenia gravis = details: compared to prednisone; cited from earlier work
[4] = deflazacort compared to prednisone, of the 508 genes
[5] = DMD individuals receiving deflazacort
[6] = individuals with DMD administered prednisone, blood

Structure (SMILES)	muscle function and strength in individuals with DMD (individuals with DMD)	muscle strength (mdx mouse)	CD-11 inflammatory cells in mdx muscle (mdx mouse)	muscle degeneration [1]	KFL10 expression [2]	CD163 nucleic acid expression [2]	FKBP5 expression [2]	expression of genes in the chondroitin sulfate biosynthesis pathway [2]	haptoglobin nucleic acid expression [2]	lactotransferrin expression [2]	lipocalin expression [2]	genes with significantly different expression [2] [genes]	genes with down-regulated expression levels [2] [genes]	genes with up-regulated expression levels [2] [genes]	other results
C[C@]12C=CC(=O)C=C1CC[C@@H]1[C@@H]2[C@@H](O)C[C@@]2(C)[C@H]1CC[C@]2(O)C(=O)CO [prednisolone]	improve function	improve muscle strength	decrease	reduce muscle degeneration											
CC(=O)OCC(=O)[C@@]12N=C(C)O[C@@H]1C[C@H]1[C@@H]3CCC4=CC(=O)C=C[C@]4(C)[C@H]3[C@@H](O)C[C@@]12C [deflazacort]	improved muscle function and strength				up-regulated	up-regulated expression levels	up-regulated expression levels	up-regulated expression levels	up-regulated expression levels	increased expression levels	increased expression levels	524	127	397	genes significantly different ([3]; DMD administered deflazacort compared to DMD administered prednisone, fold change >=|1.5|, unpaired t-test, p<=0.05, peripheral blood): 508 genes; changes in gene expression ([3]; deflazacort compared to prednisone): fewer changes in gene expression; expression of retinoic acid receptor a (RARa) ([3]; deflazacort compared to prednisone, blood): significantly up-regulated; genes significantly down-regulated [3, 4]: 478 genes; genes significantly up-regulated [3, 4]: 30 genes; side effects (individuals with DMD; [5]): fewer side effects; weight gain (individuals with DMD; [5]): less weight gain
C[C@]12C=CC(=O)C=C1CC[C@@H]1[C@@H]2C(=O)C[C@@]2(C)[C@H]1CC[C@]2(O)C(=O)CO [prednisone]	improved muscle function and strength	improve muscle strength	decrease	reduce muscle degeneration	up-regulated	up-regulated expression levels	up-regulated expression levels	up-regulated expression levels	up-regulated expression levels	increased expression levels	increased expression levels	524	127	397	interleukin 1 beta expression [3, 6]: up-regulated; interleukin 1 receptor antagonist expression [3, 6]: up-regulated; interleukin 6 receptor expression [3, 6]: up-regulated; expression of genes related to lipid metabolism, particularly in adipose tissue ([3]; prednisone compared to deflazacort, blood): up-regulated; muscle function and strength in individuals with DMD (individuals with DMD; listed as Prednisone): improve function; KFL10 expression in the mdx mouse (mdx mouse; following six weeks of prednisone administration): up-regulated
Cn1cnc([N+](=O)[O-])c1Sc1ncnc2nc[nH]c12 [azathioprine]	does not improve DMD; also recorded: no improvement														immunosuppressant effectiveness (myasthenia gravis): less effective immunosuppressant
